Measurements taken from DBAASP.
In brackets after ≈: the same amount, converted by molar mass. Several values for one entry are separate records, joined by “and”; a condition that tells them apart may be missing. Identical values can stand only once. Blank lines part the entries; values can stand above or below the compound they belong to.

Tests used:
Assay in all cases: ≥ marks a high value that may be exact or a test limit, other limits are often not marked, values filed in µg/mL are converted to µM
[1] = tested on: Mycobacterium tuberculosis H37Rv
[2] = tested on: Mycobacterium tuberculosis CSU87
[3] = tested on: Klebsiella pneumoniae ATCC 13883
[4] = tested on: Streptococcus pyogenes ATCC 19615
[5] = tested on: Candida parapsilosis ATCC 22019
[6] = tested on: Listeria ivanovii
[7] = tested on: Enterococcus faecalis ATCC 29212
[8] = tested on: Candida albicans ATCC 90028
[9] = tested on: Saccharomyces cerevisiae
[10] = tested on: Acinetobacter baumannii ATCC 19606
[11] = tested on: Pseudomonas aeruginosa ATCC 27853
[12] = tested on: Escherichia coli ATCC 25922
[13] = tested on: Staphylococcus aureus ATCC 25923
[14] = tested on: Staphylococcus aureus ATCC BAA-44
[15] = tested on: Escherichia coli DL7
[16] = tested on: Escherichia coli MG1655
[17] = tested on: Escherichia coli MG1655 ΔrecA
[18] = tested on: Klebsiella aerogenes ATCC 13048
[19] = tested on: Staphylococcus epidermidis ATCC 12228
[20] = tested on: Bacillus subtilis PS832
[21] = tested on: Streptococcus pneumoniae ATCC 49619
[22] = tested on: Escherichia coli D31
[23] = tested on: Bacillus megaterium
[24] = tested on: Fusarium haematococcum
[25] = tested on: Aerococcus viridans
[26] = tested on: Alternaria brassicicola
[27] = tested on: Micrococcus luteus
[28] = tested on: Salmonella typhimurium
[29] = tested on: Ascochyta pisi
[30] = tested on: Pediococcus acidilactici
[31] = tested on: Trichoderma viride
[32] = tested on: Botrytis cinerea
[33] = tested on: Neurospora crassa
[34] = tested on: Escherichia coli D22
[35] = tested on: Fusarium culmorum
[36] = tested on: Bacillus subtilis
[37] = tested on: Mycobacterium tuberculosis mc2-6020
[38] = tested on: Mycobacterium tuberculosis mc2-6230
[39] = tested on: Klebsiella pneumoniae
[40] = tested on: Bacillus subtilis BGSC 1A1
[41] = tested on: Streptococcus pyogenes
[42] = tested on: Streptococcus agalactiae
[43] = tested on: Streptococcus mutans
[44] = tested on: Bacillus subtilis CCT 2576
[45] = tested on: Pseudomonas aeruginosa ATCC 15422
[46] = tested on: Staphylococcus aureus ATCC 6538
[47] = tested on: Streptococcus sanguinis ATCC 10556
[48] = tested on: Streptococcus mutans UA159
[49] = tested on: Streptococcus sobrinus ATCC 6715

MIC [1]: ≥ 460 µM
MIC [2]: ≥ 460 µM
Structure (SMILES): CC(C)C[C@H](NC(=O)[C@H](CC(C)C)NC(=O)[C@H](CCCCN)NC(=O)[C@H](CCCCN)NC(=O)[C@H](CC(C)C)NC(=O)[C@H](CC(C)C)NC(=O)[C@@H](N)CS)C(=O)N[C@@H](CCCCN)C(=O)N[C@@H](CCCCN)C(N)=O [CLLKKLLKK]

MIC [15]: ≥ 32 µM and 16 µM
MIC [16]: ≥ 64 µM
MIC [17]: ≥ 32 µM
MIC [18]: ≥ 64 µM
MIC [1]: ≥ 300 µM
MIC [19]: 8 µM (≈ 16 µg/mL)
MIC [20]: 8 µM (≈ 16 µg/mL)
MIC [21]: ≥ 300 µM
Structure (SMILES): CC(C)C[C@H](NC(=O)CNC(=O)[C@H](C)NC(=O)[C@@H](N)CCCN=C(N)N)C(=O)N[C@@H](CCC(N)=O)C(=O)N[C@@H](Cc1ccccc1)C(=O)N1CCC[C@H]1C(=O)N[C@H](C(=O)NCC(=O)N[C@@H](CCCN=C(N)N)C(=O)N[C@H](C(=O)N[C@@H](Cc1cnc[nH]1)C(=O)N[C@@H](CCCN=C(N)N)C(=O)N[C@@H](CC(C)C)C(=O)N[C@@H](CC(C)C)C(=O)N[C@@H](CCCN=C(N)N)C(=O)N[C@@H](CCCCN)C(N)=O)C(C)C)C(C)C [RAGLQFPVGRVHRLLRK]

MIC [37]: 16 µM (≈ 30.2 µg/mL)
MIC [38]: ≥ 32 µM
MIC [39]: 136 µM (≈ 257 µg/mL)
MIC [40]: 4 µM (≈ 7.55 µg/mL)
MIC [41]: 2 µM (≈ 3.77 µg/mL)
MIC [42]: 8 µM (≈ 15.1 µg/mL)
MIC [43]: 4 µM (≈ 7.55 µg/mL)
MIC [11]: 32 µM (≈ 60.4 µg/mL)
MIC [12]: 16 µM (≈ 30.2 µg/mL)
MIC [13]: 32 µM (≈ 60.4 µg/mL)
MIC [21]: 16 µM (≈ 30.2 µg/mL)
Structure (SMILES): CC[C@H](C)[C@H](N)C(=O)N[C@@H](CC(C)C)C(=O)N[C@@H](CO)C(=O)N[C@@H](CC(C)C)C(=O)N[C@@H](CCCN=C(N)N)C(=O)N[C@@H](Cc1c[nH]c2ccccc12)C(=O)N[C@@H](Cc1c[nH]c2ccccc12)C(=O)N[C@@H](CCCN=C(N)N)C(=O)N[C@@H](CCCCN)C(=O)N[C@@H](Cc1c[nH]c2ccccc12)C(=O)N[C@@H](Cc1c[nH]c2ccccc12)C(=O)N[C@@H](CCCCN)C(=O)N[C@@H](CCCCN)C(=O)O [ILSLRWWRKWWKK]

MIC [44]: 2.16 µM (≈ 3.5 µg/mL)
MIC [45]: 9.64 µM (≈ 15.6 µg/mL)
MIC [46]: 1.79 µM (≈ 2.9 µg/mL)
MIC [12]: 2.41 µM (≈ 3.9 µg/mL)
Structure (SMILES): CC[C@H](C)[C@H](N)C(=O)N[C@@H](CC(N)=O)C(=O)N[C@@H](Cc1c[nH]c2ccccc12)C(=O)N[C@@H](CCCCN)C(=O)N[C@@H](CCCCN)C(=O)N[C@@H](CCSC)C(=O)N[C@@H](C)C(=O)N[C@@H](C)C(=O)N[C@H](C(=O)N[C@@H](C)C(=O)N[C@@H](CC(C)C)C(=O)N[C@@H](CCCCN)C(=O)N[C@@H](CCSC)C(=O)N[C@H](C(N)=O)[C@@H](C)CC)[C@@H](C)O [INWKKMAATALKMI]

Second part, the compound before the results:

Structure (SMILES): CC[C@H](C)[C@H](NC(=O)[C@H](CCCN=C(N)N)NC(=O)[C@H](CO)NC(=O)[C@H](CC(C)C)NC(=O)[C@H](Cc1ccccc1)NC(=O)[C@H](CO)NC(=O)[C@@H](N)Cc1ccccc1)C(=O)N[C@@H](Cc1ccccc1)C(N)=O [FSFLSRIF]
MIC [3]: ≥ 100 µM
MIC [4]: ≥ 50 µM
MIC [5]: ≥ 100 µM
MIC [6]: ≥ 100 µM
MIC [7]: > 100 µM
MIC [8]: ≥ 100 µM
MIC [9]: 25 µM (≈ 25.4 µg/mL)
MIC [10]: > 100 µM
MIC [11]: > 100 µM
MIC [12]: 100 µM (≈ 102 µg/mL)
MIC [13]: > 100 µM
MIC [14]: ≥ 100 µM

Structure (SMILES): CC[C@H](C)[C@H](NC(=O)[C@@H](NC(=O)[C@@H]1CCCN1C(=O)[C@@H](NC(=O)[C@@H]1CCCN1C(=O)[C@H](CCCCN)NC(=O)[C@H](CCCCN)NC(=O)[C@H](CO)NC(=O)CN)C(C)C)[C@@H](C)CC)C(=O)N[C@@H](Cc1ccc(O)cc1)C(=O)N[C@H]1CSSC[C@@H](C(=O)N[C@@H](CCC(N)=O)C(=O)N[C@@H](CCCN=C(N)N)C(=O)O)NC(=O)[C@H](CCCCN)NC(=O)CNC(=O)[C@H]([C@@H](C)O)NC(=O)[C@H](CCCN=C(N)N)NC(=O)[C@H](CCCN=C(N)N)NC(=O)[C@H](CC(N)=O)NC1=O [GSKKPVPIIYCNRRTGKCQR]
MIC [22]: 28.3 µM (≈ 65.1 µg/mL)
MIC [23]: 3.54 µM (≈ 8.14 µg/mL)
MIC [24]: 3.54 µM (≈ 8.14 µg/mL)
MIC [25]: 3.54 µM (≈ 8.14 µg/mL)
MIC [26]: 7.07 µM (≈ 16.3 µg/mL)
MIC [27]: 3.54 µM (≈ 8.14 µg/mL)
MIC [28]: 28.3 µM (≈ 65.1 µg/mL)
MIC [29]: 14.1 µM (≈ 32.6 µg/mL)
MIC [30]: 28.3 µM (≈ 65.1 µg/mL)
MIC [31]: 14.1 µM (≈ 32.6 µg/mL)
MIC [32]: 7.07 µM (≈ 16.3 µg/mL)
MIC [33]: 7.07 µM (≈ 16.3 µg/mL)
MIC [34]: 28.3 µM (≈ 65.1 µg/mL)
MIC [35]: 14.1 µM (≈ 32.6 µg/mL)
MIC [36]: 28.3 µM (≈ 65.1 µg/mL)

Structure (SMILES): NCCCC[C@H](NC(=O)[C@H](CCCCN)NC(=O)[C@H](Cc1ccccc1)NC(=O)[C@H](Cc1ccccc1)NC(=O)[C@H](CCCCN)NC(=O)[C@H](CCCCN)NC(=O)[C@H](Cc1ccccc1)NC(=O)[C@H](Cc1ccccc1)NC(=O)[C@@H](N)CCCCN)C(=O)N[C@@H](Cc1c[nH]c2ccccc12)C(=O)O [KFFKKFFKKW]
MIC [47]: ≥ 357 µM
MIC [48]: ≥ 357 µM
MIC [49]: ≥ 179 µM
